The values that follow are results of earlier work, collected in patent US8420131B2, “Composition for obesity treatment” (priority 2011, dated 2013).

Data set [1] concerns human white preadipocytes.
The conditions of data set [2]: in vivo.
The conditions of data set [3]: in vivo. This is another data set of the same source.
For data set [4] the following is noted: patients with PCOS.
The conditions of data set [5]: animal study.
For data set [6] the following is noted: humans.
For data set [7] the following is noted: sixty depressed patients, added to imipramine therapy.

Take `COc1ccc2cc3[n+](cc2c1OC)CCc1cc2c(cc1-3)OCO2` [berberine]: the adipogenesis entry in data set [1] is reported as “inhibit adipogenesis”.
On to `CC(/C=C/C=C(\C)C(=O)O)=C\C=C\C=C(C)\C=C\C=C(/C)C(=O)O` [crocetin], for which the “inhibition of the effect of lipase” value with lipase is “potently inhibit”. For the same compound, the “potency compared with orlistat” value (dose of 50 mg/kg versus orlistat at 10 mg/kg) was “comparable”. Besides, the fat deposits entry (mice fed on a high fat diet) was “significantly reduced”.
With `CC(/C=C/C=C(\C)C(=O)O[C@@H]1O[C@H](CO[C@@H]2O[C@H](CO)[C@@H](O)[C@H](O)[C@H]2O)[C@@H](O)[C@H](O)[C@H]1O)=C\C=C\C=C(C)\C=C\C=C(/C)C(=O)O[C@@H]1O[C@H](CO[C@@H]2O[C@H](CO)[C@@H](O)[C@H](O)[C@H]2O)[C@@H](O)[C@H](O)[C@H]1O` [crocin], in the data set with lipase, the “inhibition of the effect of lipase” value is reported as “potently inhibit”.
Take `O[C@H]1[C@H](O)[C@@H](O)[C@H](O)[C@@H](O)[C@H]1O` [inositol]: the “decreasing the number of panic attacks, compared with fluvoxamine” value in [2] is recorded as “superior”. Besides, in data set [3], the “symptoms of depressed patients” value is listed as “significant improvement”. Also, in data set [4], the “action of insulin / insulin sensitivity” value is on record as “increases the action of insulin”.
Consider `[Mg+2]` [magnesium], for which the “effect compared with imipramine” value in data set [5] was “comparable”. Further, the “effectiveness in treating depression compared with imipramine” value in [6] was “as effective as imipramine”.
In the case of `[Zn]` [zinc], the depression scores entry in [7] is “significantly reduced”.
